Legend:
Assay type in all cases: functional
[1] = species: Cavia porcellus; assay: Bronchodilator activity against acetylcholine-induced spasm in guinea pig; settings: read-out: ID50 (the source's name)
[2] = species: Cavia porcellus; assay: Bronchodilator activity against histamine-induced spasm in guinea pig; settings: read-out: ID50 (the source's name)
[3] = species: Cavia porcellus; assay: Bronchodilator activity against serotonin-induced spasm in guinea pig; settings: read-out: ID50 (the source's name)
[4] = species: Homo sapiens; assay: Compound was tested for Bronchodilator activity against isolated human bronchus contracted by carbachol
[5] = Relative potency is ratio of IC50 of theophylline / IC50 was determined

Row | Structure (SMILES) | ED50 [1] | ED50 [2] | ED50 [3] | IC50 ([4]; Homo sapiens, Bronchus, read-out: IC50) | Relative potency [5] | IC50 [4]
1 | Cc1cccn2c(=O)c3c(nc12)CCC3 | 21.6 µmol/kg | 10.2 µmol/kg | 11.2 µmol/kg | 97.7 µM | 1.54 | –
2 | Cc1cccc2nc3c(c(=O)n12)CCC3 | 29.3 µmol/kg | 7.2 µmol/kg | 4.3 µmol/kg | – | – | –
3 | CC1CCCc2nc3c(c(=O)n21)CCC3 (configuration not stated) | 18.2 µmol/kg | 11.7 µmol/kg | 13.8 µmol/kg | – | – | –
4 | O=C(O)c1ccc2nc3n(c(=O)c2c1)CCC3 | > 100 µmol/kg | 215 µmol/kg | > 100 µmol/kg | – | – | –
5 | CC1CCCc2nc3ccccc3c(=O)n21 (configuration not stated) | > 100 µmol/kg | 27 µmol/kg | 30.2 µmol/kg | – | – | –
6 | CC1CCn2c1nc1ccccc1c2=O (configuration not stated) | 45.8 µmol/kg | 27.3 µmol/kg | 29.4 µmol/kg | – | – | –
7 | CC1CCCn2c1nc1c(c2=O)CCC1 (configuration not stated) | 12.8 µmol/kg | 11.5 µmol/kg | 7.7 µmol/kg | – | – | –
8 | CC1CCCc2nc3c(c(=O)n21)CCCC3 (configuration not stated) | 20.3 µmol/kg | 24.7 µmol/kg | 14 µmol/kg | – | – | –
9 | CCc1c(C)nc2c(C)cccn2c1=O | 36.4 µmol/kg | 5.1 µmol/kg | 12.3 µmol/kg | – | – | –
10 | O=C(O)c1ccc2c(=O)n3c(nc2c1)CCC3 | > 100 µmol/kg | > 100 µmol/kg | > 100 µmol/kg | – | – | –
11 | Cc1ccc2nc3c(c(=O)n2c1)CCC3 | 29.1 µmol/kg | 29.2 µmol/kg | 14.4 µmol/kg | – | – | –
12 | CC1CCc2nc3c(c(=O)n21)CCCC3 (configuration not stated) | 74.6 µmol/kg | 19.7 µmol/kg | 46.8 µmol/kg | – | – | –
13 | Cc1cccn2c(=O)c3c(nc12)CCCCCC3 | 42.6 µmol/kg | 23.8 µmol/kg | 14.3 µmol/kg | – | – | –
14 | Cl.O=c1c2c(nc3ccccn13)CCCC2 | 18.2 µmol/kg | 6.1 µmol/kg | 16.7 µmol/kg | – | 1.18 | 127 uM l-1
15 | Cc1ccc2nc3c(c(=O)n2c1)CCCC3 | 32 µmol/kg | 15.6 µmol/kg | 20.4 µmol/kg | – | – | –
16 | O=c1c2c(nc3n1CCCC3)CCCC2 | 44.5 µmol/kg | 22 µmol/kg | 33.3 µmol/kg | – | – | –
17 | CCOC(=O)c1ccc2c(=O)n3c(nc2c1)CCCC3 | > 32 µmol/kg | 15.1 µmol/kg | > 32 µmol/kg | – | – | –
18 | S=c1c2c(nc3n1CCCCC3)CCC2 | > 320 µmol/kg | > 320 µmol/kg | > 320 µmol/kg | – | – | –
19 | CCOC(=O)c1ccc2c(=O)n3c(nc2c1)CCC3 | > 32 µmol/kg | 14.4 µmol/kg | > 32 µmol/kg | – | – | –
20 | O=c1c2c(nc3n1CCCCC3)CCCCCC2 | 2.26 µmol/kg | 33 µmol/kg | > 100 µmol/kg | – | – | –
21 | O=c1c2c(nc3n1CCCC3)CCC2 | 23.7 µmol/kg | 25.7 µmol/kg | 24.1 µmol/kg | – | – | –

Row | Structure (SMILES) | ED50 [1] | ED50 [2] | ED50 [3] | IC50 ([4]; Homo sapiens, Bronchus, read-out: IC50) | Relative potency [5] | IC50 [4]
22 | CCc1c(C)nc2ccc(C)cn2c1=O | 24 µmol/kg | 12.4 µmol/kg | 16.6 µmol/kg | – | – | –
23 | O=c1c2c(nc3n1CCC3)CCC2 | > 100 µmol/kg | 46.1 µmol/kg | 82.5 µmol/kg | – | – | –
24 | O=c1c2cc3c(cc2nc2n1CCCCC2)OCO3 | 22.7 µmol/kg | > 32 µmol/kg | 13.1 µmol/kg | – | – | –
25 | COC(=O)c1ccc2nc3n(c(=O)c2c1)CCCC3 | > 32 µmol/kg | 16.8 µmol/kg | 12.3 µmol/kg | – | – | –
26 | Cl.O=c1c2c(nc3ccccn13)CCC2 | 32.4 µmol/kg | 10.5 µmol/kg | 17.6 µmol/kg | – | 0.17 | 879 uM l-1
27 | Cc1ccc2nc3n(c(=O)c2c1)CCC3 | 29 µmol/kg | 29.8 µmol/kg | 11.3 µmol/kg | – | – | –
28 | Cc1ccc2nc3n(c(=O)c2c1)CCCCC3 | 16 µmol/kg | 25.3 µmol/kg | 44.7 µmol/kg | – | – | –
29 | COC(=O)c1ccc2nc3n(c(=O)c2c1)CCC3 | 44.1 µmol/kg | 27 µmol/kg | 11.7 µmol/kg | – | – | –
30 | CCc1c(C)nc2ccccn2c1=O.Cl | 29.4 µmol/kg | 8.6 µmol/kg | 12 µmol/kg | – | 1.19 | 127 uM l-1
31 | CC1CCn2c(nc3c(c2=O)CCCC3)C1 (configuration not stated) | 29.9 µmol/kg | 25.7 µmol/kg | 39.3 µmol/kg | – | – | –
32 | S=c1c2c(nc3n1CCCCC3)CCCC2 | > 320 µmol/kg | > 320 µmol/kg | > 320 µmol/kg | – | – | –
33 | O=C(O)c1ccc2nc3n(c(=O)c2c1)CCCC3 | > 100 µmol/kg | > 100 µmol/kg | > 100 µmol/kg | – | – | –
34 | O=C(O)c1ccc2nc3n(c(=O)c2c1)CCCCC3 | > 100 µmol/kg | > 100 µmol/kg | > 100 µmol/kg | – | – | –
35 | O=c1c2ccccc2nc2n1CCCCCC2 | 61.8 µmol/kg | 61.8 µmol/kg | > 100 µmol/kg | – | – | –
36 | CC1CCc2nc3ccccc3c(=O)n21 (configuration not stated) | 48.2 µmol/kg | 10.4 µmol/kg | 12.2 µmol/kg | – | – | –
37 | O=c1nc2n(c3c1CCCC3)CCCCC2 | > 32 µmol/kg | > 32 µmol/kg | 55.1 µmol/kg | – | – | –
38 | O=c1c2c(nc3ccccn13)CCCCCC2 | 53.3 µmol/kg | 32.7 µmol/kg | 49 µmol/kg | – | – | –
39 | Cc1ccn2c(=O)c3c(nc2c1)CCCC3 | 37.7 µmol/kg | 20.4 µmol/kg | 21.9 µmol/kg | – | – | –
40 | COc1ccccc1.Cn1c(=O)c2nc[nH]c2n(C)c1=O | 22 µmol/kg | 10 µmol/kg | 10 µmol/kg | – | 1 | 151 uM l-1
41 | O=c1c2ccccc2nc2n1CCCC2 | 31.1 µmol/kg | 11.1 µmol/kg | 15.2 µmol/kg | – | – | –
42 | CC1CCc2nc3c(c(=O)n2C1)CCCC3 (configuration not stated) | 28.9 µmol/kg | 23.6 µmol/kg | 38.1 µmol/kg | – | – | –

Row | Structure (SMILES) | ED50 [1] | ED50 [2] | ED50 [3] | IC50 ([4]; Homo sapiens, Bronchus, read-out: IC50) | Relative potency [5] | IC50 [4]
43 | CC1CCCn2c1nc1c(c2=O)CCCC1 (configuration not stated) | 47.1 µmol/kg | 19.8 µmol/kg | 36.2 µmol/kg | – | – | –
44 | Cc1cccc2nc3c(c(=O)n12)CCCC3 | 10 µmol/kg | 9.7 µmol/kg | 6.1 µmol/kg | – | – | –
45 | O=c1c2c(nc3n1CCC3)CCCC2 | 51.1 µmol/kg | 24.1 µmol/kg | 29.8 µmol/kg | – | – | –
46 | Cc1ccc2c(=O)n3c(nc2c1)CCCCC3 | 76 µmol/kg | 25.6 µmol/kg | 39.4 µmol/kg | – | – | –
47 | Cc1ccn2c(=O)c3c(nc2c1)CCC3 | 29.6 µmol/kg | 15.7 µmol/kg | 22.6 µmol/kg | – | – | –
48 | O=c1c2ccccc2nc2n1CCC2 | 37.7 µmol/kg | 16.9 µmol/kg | 21.2 µmol/kg | – | – | –
49 | O=c1c2c(nc3n1CCC3)CCCCCC2 | 100 µmol/kg | 164 µmol/kg | 57.1 µmol/kg | – | – | –
50 | O=c1nc2n(c3c1CCC3)CCC2 | > 100 µmol/kg | > 100 µmol/kg | > 100 µmol/kg | – | – | –
51 | O=c1c2c(nc3n1CCCCCC3)CCCC2 | 58.5 µmol/kg | 27.1 µmol/kg | 44.6 µmol/kg | – | – | –
52 | CC1CCc2nc3c(c(=O)n2C1)CCC3 (configuration not stated) | 17.6 µmol/kg | 7.2 µmol/kg | 39.6 µmol/kg | – | – | –
53 | O=C(O)c1ccc2c(=O)n3c(nc2c1)CCCCC3 | > 100 µmol/kg | > 100 µmol/kg | > 100 µmol/kg | – | – | –
54 | O=c1c2c(nc3n1CCC3)CCCCC2 | 38.5 µmol/kg | 27.6 µmol/kg | 33 µmol/kg | – | – | –
55 | O=C(O)c1ccc2c(=O)n3c(nc2c1)CCCC3 | > 100 µmol/kg | > 100 µmol/kg | > 100 µmol/kg | – | – | –
56 | O=c1nc2n(c3c1CCCC3)CCC2 | > 100 µmol/kg | > 100 µmol/kg | 107 µmol/kg | – | – | –
57 | O=c1c2c(nc3n1CCCCC3)CCCCC2 | 7.2 µmol/kg | 33.8 µmol/kg | 30.8 µmol/kg | – | – | –
58 | CCOC(=O)c1c[n+](C)c2n(c1=O)C(C)CCC2 (configuration not stated) [RIMAZOLIUM METILSULFATE] | 31 µmol/kg | 8 µmol/kg | 14 µmol/kg | – | – | –
59 | O=c1c2c(nc3n1CCCC3)CCCCC2 | 11.8 µmol/kg | 15.2 µmol/kg | 12.7 µmol/kg | – | – | –
60 | O=c1c2c(nc3n1CCCCC3)CCCC2 | – | 3 µmol/kg | 3 µmol/kg | – | – | –
61 | CCc1c(C)nc2cc(C)ccn2c1=O | 36.7 µmol/kg | 20.9 µmol/kg | 29.7 µmol/kg | – | – | –
